Experimental findings from patent US20240132464A1, “HETEROCYCLIC COMPOUNDS AS E3 LIGASE INHIBITORS” (Accutar Biotechnology Inc., priority 2022, published 2024) are described below.

This experiment addresses T1, GID4 (Uniprot ID: Q81VV7, residues 124-289) (Homo sapiens, UniProt Q8IVV7).
T1 construct: GID4 (Uniprot ID: Q81VV7, residues 124-289)
T1 sequence (Q8IVV7 124-289): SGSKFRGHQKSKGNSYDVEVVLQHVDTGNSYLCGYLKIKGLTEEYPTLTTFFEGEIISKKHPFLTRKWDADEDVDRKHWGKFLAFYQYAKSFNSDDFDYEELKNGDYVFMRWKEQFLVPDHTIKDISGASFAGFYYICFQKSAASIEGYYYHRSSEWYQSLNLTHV
Description: GID4 competitive binding assay (AlphaScreen, GID4/degron peptide PGLW). The conditions noted are these: 24 nM GID4, 48 nM biotinylated degron peptide PGLW, 4° C., read-out: IC50 (Inhibition of GID4/Degron binding by test compounds). The method in brief: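 His-tagged human GID4 (residues 124-289, 24 nM) pre-incubated 2 h at 4 °C with 48 nM biotinylated PGLW peptide and compound in HEPES pH 7.5 buffer, 2% DMSO (final). AlphaScreen streptavidin donor/Ni-NTA acceptor beads added for 1 h; IC50 from nonlinear fit of % inhibition versus DMSO.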
For orientation: Alpha assays give light when donor and acceptor beads are brought close together.
For `CC(C)c1cc(N2CCNC(c3c[nH]c4ccccc34)C2)nc(N)n1` (centres unmarked) [Compound 138, 4-(3-(1H-indol-3-yl)piperazin-1-yl)-6-isopropylpyrimidin-2-amine], the IC50 fell in the range of 500 to 5000 nM. As for `Cc1cc(N2CCCC(c3cnc4ccccn34)C2)nc(N)n1` (centres unmarked) [Compound 147, 4-(3-(imidazo[1,2-a]pyridin-3-yl)piperidin-1-yl)-6-methylpyrimidin-2-amine], the IC50 fell in the range of 500 to 5000 nM.

Turning to `CC(C)c1cc(N2CCNC(c3cc(C(=O)N4CCN(C)CC4)ccc3Br)C2)nc(N)n1` (single isomer, unassigned) [Compound 17, (R/S)-(3-(4-(2-amino-6-isopropylpyrimidin-4-yl)piperazin-2-yl)-4-bromophenyl)(4-methylpiperazin-1-yl)methanone], the IC50 is less than 500 nM.

On to `CN(C)CCCNC(=O)c1ccc(-c2cc(O)c3c(c2)CCCN3)cc1` [Compound 284, N-(3-(dimethylamino)propyl)-4-(8-hydroxy-1,2,3,4-tetrahydroquinolin-6-yl)benzamide], for which the IC50 was greater than 5000 nM. Regarding `CNc1cc(N2CCN[C@@H](c3ccccc3)C2)nc(N)n1` (racemic) [Compound 129, (S/R)-N4-methyl-6-(3-phenylpiperazin-1-yl)pyrimidine-2,4-diamine], the IC50 was in the range of 500 to 5000 nM. Regarding `CN(C)CCNC(=O)c1ccc(Br)c(C2CN(c3cc(N)nc(N)n3)CCN2)c1` (centres unmarked) [Compound 9, 4-bromo-3-(4-(2,6-diaminopyrimidin-4-yl)piperazin-2-yl)-N-(2-(dimethylamino)ethyl)benzamide], the IC50 was less than 500 nM.

Consider `CNc1cc(N2CCCC(c3csc4ccccc34)C2)nc(N)n1` (centres unmarked) [Compound 82, 6-(3-(benzo[b]thiophen-3-yl)piperidin-1-yl)-N4-methylpyrimidine-2,4-diamine], for which the IC50 lay in the range of 500 to 5000 nM. To `Cc1cc(N2CCCC(Nc3ccc(=O)[nH]c3)C2)nc(N)n1` (centres unmarked) [Compound 202, 5-((1-(2-amino-6-methylpyrimidin-4-yl)piperidin-3-yl)amino)pyridin-2(1H)-one] belongs greater than 5000 nM; to `CC(C)c1cc(N2CCN(C)[C@@H](c3ccccc3Br)C2)nc(N)n1` (racemic) [Compound 161, (S/R)-4-(3-(2-bromophenyl)-4-methylpiperazin-1-yl)-6-isopropylpyrimidin-2-amine], 500 to 5000 nM; to `CN(C)CCNCc1n[nH]c2ccc(-c3ccc4ccnc(N)c4c3)cc12` [Compound 3, N1-((5-(1-aminoisoquinolin-7-yl)-1H-indazol-3-yl)methyl)-N2,N2-dimethylethane-1,2-diamine], less than 500 nM. With `CN(C)C(=O)CCC1CCCN(c2nc(N)nc3c2CCCN3)C1` (centres unmarked) [Compound 135, 3-(1-(2-amino-5,6,7,8-tetrahydropyrido[2,3-d]pyrimidin-4-yl)piperidin-3-yl)-N,N-dimethylpropanamide] the figure was 500 to 5000 nM. Regarding `CC(=O)N1CCN(c2cc(N)nc(NC3CC3)n2)CC1c1ccccc1Br` (centres unmarked) [Compound 52, 1-(4-(6-amino-2-(cyclopropylamino)pyrimidin-4-yl)-2-(2-bromophenyl)piperazin-1-yl)ethan-1-one], the IC50 fell in the range of 500 to 5000 nM.

With `CC(C)c1cc(N2CCC(O)(c3ccccc3Br)C2)nc(N)n1` (centres unmarked) [Compound 231, 1-(2-amino-6-isopropylpyrimidin-4-yl)-3-(2-bromophenyl)pyrrolidin-3-ol], the IC50 was greater than 5000 nM. As to `Nc1cc(N2CCNC(c3cnc4ccccn34)C2)nc(N)n1` (racemic) [Compound 120, (R/S)-6-(3-(imidazo[1,2-a]pyridin-3-yl)piperazin-1-yl)pyrimidine-2,4-diamine], the IC50 was in the range of 500 to 5000 nM. In the case of `CN(C)[C@H]1C[C@H](NC(=O)c2ccc(-c3cc(O)c4ncccc4c3)cc2)C1` [Compound 280, N-(trans-3-(dimethylamino)cyclobutyl)-4-(8-hydroxyquinolin-6-yl)benzamide], the IC50 was less than 500 nM. Turning to `Nc1cc(N2CCOC(c3ccccc3Br)C2)nc(N)n1` (single isomer, unassigned) [Compound 146, (S/R)-6-(2-(2-bromophenyl)morpholino)pyrimidine-2,4-diamine], the IC50 is less than 500 nM. With `CNc1cc(N2CCC[C@@H](c3ccccc3Br)C2)nc(NC)n1` (stereo in doubt) [Compound 84, (S/R)-6-(3-(2-bromophenyl)piperidin-1-yl)-N2,N4-dimethylpyrimidine-2,4-diamine] the figure was 500 to 5000 nM; with `CC(C)c1cc(N2CCNC(c3cc(Br)ccc3Br)C2)nc(N)n1` (centres unmarked) [Compound 200, 4-(3-(2,5-dibromophenyl)piperazin-1-yl)-6-isopropylpyrimidin-2-amine], 500 to 5000 nM; with `CC(C)c1cc(N2CCCC(c3cnc4ncccn34)C2)nc(N)n1` (centres unmarked) [Compound 245, 4-(3-(imidazo[1,2-a]pyrimidin-3-yl)piperidin-1-yl)-6-isopropylpyrimidin-2-amine], less than 500 nM. To `CN(C)CCCNC(=O)c1cc(-c2cc(O)c3ncccc3c2)co1` [Compound 283, N-(3-(dimethylamino)propyl)-4-(8-hydroxyquinolin-6-yl)furan-2-carboxamide] belongs less than 500 nM. With `COc1cc(CNC(=O)c2n[nH]c3ccc(-c4ccc5ccnc(N)c5c4)cc23)ccn1` [Compound 326, 5-(1-aminoisoquinolin-7-yl)-N-((2-methoxypyridin-4-yl)methyl)-1H-indazole-3-carboxamide], the IC50 was less than 500 nM. To `CN1CC(CNC(=O)c2n[nH]c3ccc(-c4ccc5ccnc(N)c5c4)cc23)C1` [Compound 334, 5-(1-aminoisoquinolin-7-yl)-N-((1-methylazetidin-3-yl)methyl)-1H-indazole-3-carboxamide] belongs less than 500 nM. To `CC(C)c1cc(N2CCNC(c3csc4ccccc34)C2)nc(N)n1` (centres unmarked) [Compound 162, 4-(3-(benzo[b]thiophen-3-yl)piperazin-1-yl)-6-isopropylpyrimidin-2-amine] belongs 500 to 5000 nM; to `CC(C)c1cc(N2CCC=C(c3ccccc3Br)C2)nc(N)n1` [Compound 230, 4-(5-(2-bromophenyl)-3,6-dihydropyridin-1(2H)-yl)-6-isopropylpyrimidin-2-amine], greater than 5000 nM.

`CN(C)CCCNC(=O)c1cc(Cl)c(-c2cc(O)c3ncccc3c2)cc1Cl` [Compound 322, 2,5-dichloro-N-(3-(dimethylamino)propyl)-4-(8-hydroxyquinolin-6-yl)benzamide]: the IC50 was less than 500 nM. To `CN(C)CCCNC(=O)c1cc(F)c(-c2cc(O)c3ncccc3c2)cc1Cl` [Compound 315, 2-chloro-N-(3-(dimethylamino)propyl)-5-fluoro-4-(8-hydroxyquinolin-6-yl)benzamide] belongs less than 500 nM; to `CN(C)CCCNC(=O)c1ccc(-c2cc(O)c3nccnc3c2)cc1` [Compound 285, N-(3-(dimethylamino)propyl)-4-(8-hydroxyquinoxalin-6-yl)benzamide], less than 500 nM. With `CNc1cc(N2CCCC(n3ncc4ccccc43)C2)nc(N)n1` (centres unmarked) [Compound 254, 6-(3-(1H-indazol-1-yl)piperidin-1-yl)-N4-methylpyrimidine-2,4-diamine] the figure was greater than 5000 nM; with `Nc1nc(NC2CC2)cc(N2CCO[C@@H](c3ccccc3)C2)n1` (racemic) [Compound 95, (S/R)-N4-cyclopropyl-6-(2-phenylmorpholino)pyrimidine-2,4-diamine], greater than 5000 nM; with `CNc1cc(N2CCO[C@@H](c3ccccc3)C2)nc(N)n1` (racemic) [Compound 109, (S/R)-N4-methyl-6-(2-phenylmorpholino)pyrimidine-2,4-diamine], 500 to 5000 nM. To `CC(C)c1cc(N2CCNC(c3ccc(F)cc3Br)C2)nc(N)n1` (centres unmarked) [Compound 173, 4-(3-(2-bromo-4-fluorophenyl)piperazin-1-yl)-6-isopropylpyrimidin-2-amine] belongs less than 500 nM; to `Nc1cc(N2CCN(CCO)[C@@H](c3ccccc3Br)C2)nc(NC2CC2)n1` (stereo in doubt) [Compound 69, (S/R)-2-(4-(6-amino-2-(cyclopropylamino)pyrimidin-4-yl)-2-(2-bromophenyl)piperazin-1-yl)ethan-1-ol], greater than 5000 nM. For the compound `CNc1nc(N)cc(N2CCCC(c3cnc4ccccn34)C2)n1` (racemic) [Compound 118, (R/S)-6-(3-(imidazo[1,2-a]pyridin-3-yl)piperidin-1-yl)-N2-methylpyrimidine-2,4-diamine], the IC50 was in the range of 500 to 5000 nM. With `CN(C)CCCNC(=O)c1ccc(-c2cc(O)c3ncccc3c2)cn1` [Compound 295, N-(3-(dimethylamino)propyl)-5-(8-hydroxyquinolin-6-yl)picolinamide] the figure was less than 500 nM; with `CC(C)c1cc(N2CCNC(c3cnn4ccccc34)C2)nc(N)n1` (centres unmarked) [Compound 22, 4-isopropyl-6-(3-(pyrazolo[1,5-a]pyridin-3-yl)piperazin-1-yl)pyrimidin-2-amine], less than 500 nM; with `CCOc1ccc(Br)c(C2CN(c3cc(C(C)C)nc(N)n3)CCN2)c1` (single isomer, unassigned) [Compound 25, (R/S)-4-(3-(2-bromo-5-ethoxyphenyl)piperazin-1-yl)-6-isopropylpyrimidin-2-amine], less than 500 nM. To `Nc1nc(N2CCNC(c3ccccc3Br)C2)c2[nH]ccc2n1` (single isomer, unassigned) [Compound 42, (R/S)-4-(3-(2-bromophenyl)piperazin-1-yl)-5H-pyrrolo[3,2-d]pyrimidin-2-amine] belongs greater than 5000 nM; to `CNC(=O)c1ccc2nnc(C3CCCN(c4cc(C(C)C)nc(N)n4)C3)n2c1` (centres unmarked) [Compound 166, 3-(1-(2-amino-6-isopropylpyrimidin-4-yl)piperidin-3-yl)-N-methyl-[1,2,4]triazolo[4,3-a]pyridine-6-carboxamide], greater than 5000 nM.
